Assay results as given in US9248162B2, “Factor H for treatment of rheumatoid arthritis” (Baxter International Inc., priority 2013, dated 2016).
Where “and” joins values, the source holds several entries; their conditions need not be identical. Equal entries are not always repeated.

Legend:
[1] = tested on: kidney allografts in pre-sensitized recipients; test: Kidney allograft survival in pre-sensitized recipients, RAPA / FK506 / CFH (Example 2); format: in vivo, C57BL/6 (B6) mice
Source text: Male C3H (H-2k) and C57BL/6 (B6, H-2b) mice (25-30 g) were used to determine the efficacy of Rapamycin (RAPA) in combination with Factor H (FH) during transplant rejection. C3H mice served as skin graft and kidney donors for pre-sensitization and kidney transplantation. Male C57BL/c (B6) mice were used as recipients. The B6 recipients were pre-sensitized by transplantation of the donor skin grafts, and were subsequently transplanted with kidney allografts between 15 and 20 days after the skin transplantation. […]
Mice were monitored daily for signs of rejection and were euthanized at the end point of the experiment, which was defined as when transplants developed functional deterioration due to severe rejection or on POD60 and POD100. Renal graft function was monitored by plasma creatinine (Cr) blood urea nitrogen (BUN) and hematocrit (Hct) levels by an I-Stat potable analyzer (Abaxis). Circulating donor specific antibodies (DSAs) were determined prior to kidney transplantation and at the endpoint of study by flow cytometry.

[2] = Mouse CAIA: body weight and tolerability; format: in vivo, Balb C mice; conditions: mouse, in vivo
Protocol: (§1) Balb C mice (n=10 per cohort) were used to determine the efficacy of Factor H (FH) during […]. The mice were treated with ArthritoMAb (anti-collagen) antibody cocktail (2 mg, i.v.) on day 1, followed 7 days later with an injection of LPS (50 μg, i.p.). On day 8, hind paw volumes were measured for each animal and distributed to various treatment groups.
(§2) Dosing with the different agents was started on day 8 as described in Table 3.
(§3) Hind paw volumes were measured on day 8, 11, 12, 13, 15, 19 and 22 (endpoint). The age at start date was 7 to 9 weeks. Body weights were measured bi-weekly to the endpoint (Table 4). At the endpoint, tissue samples were processed for histology and submitted to a pathologist for independent analysis. Sampling 1 was performed at the endpoint. The hind limbs were preserved in 10% formalin. Sampling 2 was performed at the endpoint for group 4 animals. Blood was collected by terminal cardiac puncture. The blood was processed for anti-coagulant. The kidneys were additionally preserved in formalin and followed with 70% EtOH. Samples were scored for inflammation, pannus (granulation tissue), cartilage damage, bone resorption and exostosis (Table 5).

[3] = tested on: collagen antibody-induced arthritis; test: Mouse CAIA: ankle histology scores (H & E); format: in vivo, Balb C mice; set-up: key: 0: normal; 1: minimal infiltration of inflammatory cells in periarticular tissue; 2: mild infiltration; 3: moderate infiltration with moderate edema; 4: marked infiltration with marked edema; 5: severe infiltration with severe edema; conditions: individual animal
Protocol: as §1, §2, §3

[4] = tested on: collagen antibody-induced arthritis; test: Mouse CAIA: clinical score; format: in vivo, Balb C mice
Protocol: The mice were treated with ArthritoMAb (anti-collagen) antibody cocktail (2 mg, i.v.) on day 1, followed 7 days later with an injection of LPS (50 μg, i.p.). On day 8, hind paw volumes were measured for each animal and distributed to various treatment groups.
(§4) Factor H was formulated in 20 mM Citrate, 150 mM NaCl, pH=6. […] Ethanercept was formulated as Enbrel™ in saline. Vehicle was formulated in 20 mM Citrate, 150 mM NaCl, pH=6. […] The dosing volume for Factor H and BX12 was 25 mL/kg (0.500 mL/20 g mouse) and adjusted accordingly for body weight.
as §2

[5] = tested on: collagen antibody-induced arthritis; test: Mouse CAIA: hind paw / footpad volume (swelling, disease burden); format: in vivo, Balb C mice; set-up: Mean Disease Burden / Total Disease Burden (AUC) / Hind Limb Volume, Mean Diff. / Total Disease, Mean Diff.: unit not given here
Protocol: as §1, §4, §2
as §3, with “The” for “Hind paw volumes were measured on day 8, 11, 12, 13, 15, 19 and 22 (endpoint). The”

[6] = tested on: collagen antibody-induced arthritis; test: Mouse CAIA: ankle histology scores (H & E); format: in vivo, Balb C mice; set-up: key to Score From H & E: Inflammation: 0: normal; 1: minimal infiltration of inflammatory cells in periarticular tissue; 2: mild infiltration; 3: moderate infiltration with moderate edema; 4: marked infiltration with marked edema; 5: severe infiltration with severe edema; key to Exostosis, Summary (significance) / Composite, Summary (significance) / Pannus, Summary (significance) / Cartilage, Summary (significance) / Inflammation, Summary (significance): ns: = not significant; *: = P < 0.05; **: = P < 0.01; ***: = P < 0.001; Composite Biohistopathology Score, group value / Composite Biohistopathology Score: scale not given here
Protocol: as §1, §2, §3

[7] = tested on: collagen antibody-induced arthritis; test: Mouse CAIA: ankle histology scores (H & E); format: in vivo, Balb C mice; set-up: key: 0: normal; 1: minimal infiltration of pannus in cartilage and subchondral bone; 2: mild infiltration; 3: moderate infiltration; 4: marked infiltration; 5: severe infiltration; conditions: individual animal, score 0-5, endpoint day 22, listed as Group 2
Protocol: as §1, §2, §3

[8] = Vehicle vs agent, Dunn's Multiple Comparison Test
[9] = Vehicle vs agent, Dunnett's Multiple Comparison Test
[10] = ankle, group mean ± spread, 10 animals, score 0-5
[11] = histopathology score, graded 1-5, hind limbs at endpoint, group value

## CO[C@H]1C[C@@H]2CC[C@@H](C)[C@@](O)(O2)C(=O)C(=O)N2CCCC[C@H]2C(=O)O[C@H]([C@H](C)C[C@@H]2CC[C@@H](O)[C@H](OC)C2)CC(=O)[C@H](C)/C=C(\C)[C@@H](O)[C@@H](OC)C(=O)[C@H](C)C[C@H](C)/C=C/C=C/C=C/1C [RAPA, Rapamycin]
[1]; individual graft survival, one value per graft
  Survival: 8 days (2×) and 37 days and 10 days and 11 days and 12 days and 22 days and 14 days and 16 days and 20 days
[1]; mean survival time of cohort, untreated controls 8 days
  MST: 14 days

## C[C@@H]1C[C@H]2[C@@H]3CCC4=CC(=O)C=C[C@]4(C)[C@@]3(F)[C@@H](O)C[C@]2(C)[C@@]1(O)C(=O)CO [Dexamethasone]
[2]
  Mean Body Weigh at Nadir: −7.7%
[3]; score 0-5, endpoint day 22
  Score From H & E: Bone Resorption: 0
  Score From H & E: Cartilage Damage: 0
  Score From H & E: Periosteal/Exostotic Changes: 0
[3]; score 0-5, endpoint day 22, listed as Group 2
  Score From H & E: Pannus: 0
[4]; [8]
  Clinical Score, Summary (significance): *** (= P < 0.001)
[4]; group mean, n=10, day 8 (start of dosing)
  Clinical Score, Day of Study 8, Mean: 4.00
[4]; group mean, n=10, day 11
  Clinical Score, Day of Study 11, Mean: 0.10
[4]; group mean, n=10, day 12
  Clinical Score, Day of Study 12, Mean: 5.70
[4]; group mean, n=10, day 13
  Clinical Score, Day of Study 13, Mean: 6.00
[4]; group mean, n=10, day 16 (Jul. 1, 2011)
  Clinical Score, Day of Study 16, Mean: 0.00
[4]; group mean, n=10, day 19
  Clinical Score, Day of Study 19, Mean: 0.00
[4]; group mean, n=10, day 22 (endpoint)
  Clinical Score, Day of Study 22, Mean: 0.00
[4]; individual animal, score 0-60, day 8 (start of dosing)
  Clinical Score, Day of Study 8: 5 (2×) and 10 (3×) and 0 (5×)
[4]; individual animal, score 0-60, day 11
  Clinical Score, Day of Study 11: 0 (9×) and 1
[4]; individual animal, score 0-60, day 12
  Clinical Score, Day of Study 12: 0 (3×) and 10 (4×) and 5 (2×) and 7
[4]; individual animal, score 0-60, day 13
  Clinical Score, Day of Study 13: 0 (4×) and 10 (6×)
[4]; individual animal, score 0-60, day 16 (Jul. 1, 2011)
  Clinical Score, Day of Study 16: 0
[4]; individual animal, score 0-60, day 19
  Clinical Score, Day of Study 19: 0
[4]; individual animal, score 0-60, day 22 (endpoint)
  Clinical Score, Day of Study 22: 0
[5]; [9]
  Hind Limb Volume, Summary (significance): *** (= P < 0.001)
  Total Disease, Summary (significance): *** (= P < 0.001)
[5]; day 8 of study, group mean, n 10
  Hind paw volume: 0.35 mL
[5]; day 8 of study, individual animal
  Hind paw volume: 0.42 mL and 0.39 mL (2×) and 0.37 mL and 0.35 mL and 0.34 mL and 0.33 mL and 0.31 mL (2×) and 0.3 mL
[5]; day 11 of study, group mean, n 10
  Hind paw volume: 0.32 mL
[5]; day 11 of study, individual animal
  Hind paw volume: 0.38 mL and 0.34 mL and 0.32 mL (3×) and 0.3 mL (3×) and 0.35 mL and 0.31 mL
[5]; day 12 of study, group mean, n 10
  Hind paw volume: 0.34 mL
[5]; day 12 of study, individual animal
  Hind paw volume: 0.34 mL (4×) and 0.28 mL and 0.35 mL and 0.32 mL and 0.31 mL and 0.39 mL and 0.37 mL
[5]; day 13 of study, group mean, n 10
  Hind paw volume: 0.33 mL
[5]; day 13 of study, individual animal
  Hind paw volume: 0.31 mL (2×) and 0.3 mL (2×) and 0.36 mL and 0.35 mL (2×) and 0.33 mL and 0.38 mL and 0.29 mL
[5]; day 16 of study, group mean, n 10
  Hind paw volume: 0.31 mL
[5]; day 16 of study, individual animal
  Hind paw volume: 0.37 mL and 0.33 mL and 0.29 mL (3×) and 0.38 mL and 0.26 mL and 0.3 mL (2×) and 0.27 mL
[5]; day 19 of study, group mean, n 10
  Hind paw volume: 0.34 mL
[5]; day 19 of study, individual animal
  Hind paw volume: 0.35 mL (4×) and 0.28 mL and 0.3 mL (2×) and 0.38 mL and 0.37 mL and 0.32 mL
[5]; day 22 of study, group mean, n 10
  Hind paw volume: 0.33 mL
[5]; day 22 of study, individual animal
  Hind paw volume: 0.39 mL and 0.42 mL and 0.3 mL and 0.32 mL and 0.29 mL (2×) and 0.35 mL (2×) and 0.31 mL and 0.26 mL
[5]; days 8-22, individual animal
  % Disease Suppression: 95.1%
  Total Disease Burden (AUC): −0.56 and −0.05
[6]; [8]
  Cartilage, Summary (significance): ns
  Composite, Summary (significance): * (= P < 0.05)
  Exostosis, Summary (significance): ** (= P < 0.01)
  Inflammation, Summary (significance): ** (= P < 0.01)
  Pannus, Summary (significance): ns
[6]; ankle, group mean ± spread, 10 animals
  Composite Biohistopathology Score, group value: 0.2 ± 0.1
[6]; [10]
  Score From H & E: Bone Resorption, group value: 0.0 ± 0.0
  Score From H & E: Cartilage Damage, group value: 0.0 ± 0.0
  Score From H & E: Inflammation, group value: 0.1 ± 0.1
  Score From H & E: Pannus, group value: 0.1 ± 0.1
  Score From H & E: Periosteal/Exostotic Changes, group value: 0.0 ± 0.0
[6]; ankle, individual animal, endpoint day 22, listed as Group 2
  Composite Biohistopathology Score: 1 (2×) and 0 (8×)
[6]; ankle, individual animal, score 0-5, endpoint day 22, listed as Group 2
  Score From H & E: Inflammation: 0 (9×) and 1
[7]
  Score From H & E: Pannus: 1

## C[C@@H]1C[C@H]2[C@@H]3CCC4=CC(=O)C=C[C@]4(C)[C@@]3(F)[C@@H](O)C[C@]2(C)[C@@]1(O)C(=O)CO [Dex.]
[6]; histopathology composite, hind limbs at endpoint, group value
  Composite Score: 0.2 ± 0.1
[6]; [11]
  Bone Resorption: 0 ± 0^ns
  Cartilage Damage: 0 ± 0^ns
  Exostosis: 0 ± 0
  Inflammation: 0.1 ± 0.1
  Pannus: 0.1 ± 0.1^ns
